The target of assay [1] is Serine/threonine-protein kinase pim-2 (Homo sapiens, UniProt Q9P1W9). The experiment in a line: Kinase Assay: Pim-2 kinase assay—20 μL reactions were run in white 384 well polystyrene plates dotted with 0.8 μL compound/DMSO in the assay buffer (50 mM Tris, pH 7.5, 0.01% Tween-20, 5 mM mgCl2, 0.01% BSA, 5 mM DTT), containing 0.05 μM Fluorescein-labeled CREBtide peptide substrate (Invitrogen PV3508), 1 mM ATP, and 1 nM enzyme (Invitrogen PV3649) for 2 h at 25° C. Reactions were stopped by addition of 10 μL TR-FRET Dilution Buffer (Invitrogen PV3574) with 30 mM EDTA and 1.5 nM LanthaScreen Tb-CREB pSer133 antibody (Invitrogen PV3566). After 30 min. incubation at room temperature, plates were read on a PHERAstar FS plate reader (BMG Labtech). In general terms: In TR-FRET formats the signal depends on donor and acceptor labels being close together.
Sequence of Serine/threonine-protein kinase pim-2 (Q9P1W9 whole entry): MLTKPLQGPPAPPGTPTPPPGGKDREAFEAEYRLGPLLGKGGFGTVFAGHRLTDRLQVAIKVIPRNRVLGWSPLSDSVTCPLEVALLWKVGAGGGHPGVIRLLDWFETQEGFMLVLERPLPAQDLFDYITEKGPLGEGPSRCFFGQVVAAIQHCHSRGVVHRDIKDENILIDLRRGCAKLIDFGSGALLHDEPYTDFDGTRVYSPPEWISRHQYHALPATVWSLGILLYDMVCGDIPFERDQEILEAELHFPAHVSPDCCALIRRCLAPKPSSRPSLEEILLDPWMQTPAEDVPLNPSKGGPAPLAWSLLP

The target of assay [2] is Serine/threonine-protein kinase pim-1 (Homo sapiens, UniProt P11309). The experiment in a line: (§1) Enzyme Assay: Pim-1 and Pim-3 kinase assays—20 μL reactions were run in white 384 well polystyrene plates dotted with 0.8 μL compound/DMSO in the assay buffer (50 mM Tris, pH 7.5, 0.01% Tween-20, 5 mM mgCl2, 0.01% BSA, 5 mM DTT), containing 0.05 μM Biotin-labeled BAD peptide substrate (AnaSpec 62269), 1 mM ATP, and 2.5 pM (Pim-1, Invitrogen PV3503) or 1.25 pM (Pim-3, Millipore 14-738) enzyme for 1 h at 25° C. Reactions were stopped by addition of 10 μL STOP Buffer (150 mM Tris, pH=7.5, 150 mM NaCl, 75 mM EDTA, 0.01% Tween-20, 0.3% BSA,) supplemented with Phospho-Bad (Ser112) Antibody (Cell Signaling 9291) diluted 666-fold, and Streptavidin donor beads (PerkinElmer 6760002) along with Protein-A acceptor beads (PerkinElmer 6760137) at […] each. Supplementation of the STOP buffer with beads and stopping the reactions were done under reduced light. Prior to the stopping reactions STOP buffer with beads was preincubated for 1 h in the dark at room temperature. After stopping the reactions, plates were incubated for 1 h in the dark at room temperature before reading on a PHERAstar FS plate reader (BMG Labtech) under reduced light.
Sequence of Serine/threonine-protein kinase pim-1 (P11309 whole entry): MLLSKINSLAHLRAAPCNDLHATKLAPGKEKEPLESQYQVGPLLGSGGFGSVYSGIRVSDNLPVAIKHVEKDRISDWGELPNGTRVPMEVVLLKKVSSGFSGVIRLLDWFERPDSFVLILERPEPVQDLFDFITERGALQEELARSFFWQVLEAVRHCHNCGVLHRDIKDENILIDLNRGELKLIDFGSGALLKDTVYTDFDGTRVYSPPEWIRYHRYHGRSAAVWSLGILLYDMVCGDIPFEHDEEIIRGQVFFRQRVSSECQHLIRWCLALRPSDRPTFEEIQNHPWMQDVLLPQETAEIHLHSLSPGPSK

For assay [3], the target named is Serine/threonine-protein kinase pim-3 (Homo sapiens, UniProt Q86V86). Described as §1.

Where only a bound is given, the exact number is not on record here.

Take `C[C@@H]1C[C@H](N)C[C@H](c2ccncc2NC(=O)c2ccc(F)c3cc(-c4c(F)cccc4F)cnc23)C1`: the IC50 (as a rule, the midpoint of a concentration-inhibition curve) was less than 0.1 µM in assay [1], less than 0.01 µM in assay [2] and less than 0.01 µM in assay [3].

The values above are taken from ChEMBL document CHEMBL5726833, “Heterocyclic compounds useful as pim kinase inhibitors” (2018).
